From patent US5578616A, “Phenyl-alkyl-imidazoles” (Schering Corporation, priority 1995, dated 1996)

Target: T1, H3 receptor (Cavia porcellus, UniProt Q9JI35)
T1 construct: The source of the H3 receptors in this experiment was guinea pig brain; from tissue; host or cells: guinea pig brain membranes
Assay: H3 Receptor Binding Assay
Design: species or system guinea pig
Settings: not given
Protocol: The source of the H3 receptors in this experiment was guinea pig brain. The animals weighed 400-600 g. The brain tissue was homogenized using a Polytron in a solution of 50 mM Tris, pH 7.5. The final concentration of tissue in the homogenization buffer was 10% w/v. The homogenates were centrifuged at 1,000× g for 10 min. in order to remove clumps of tissue and debris. The resulting supernatants were then centrifuged at 50,000× g for 20 min. in order to sediment the membranes, which were next washed three times in homogenization buffer (50,000× g for 20 min. each). The membranes were frozen and stored at -70° C. until needed.
All compounds to be tested were dissolved in DMSO and then diluted into the binding buffer (50 mM Tris, pH 7.5) such that the final concentration was 2 μg/mL with 0.1% DMSO. Membranes were then added (400 μg of protein) to the reaction tubes. The reaction was started by the addition of 3 nM [^3 H]R-α-methylhistamine (8.8 Ci/mmol) or 3 nM [^3 H]N^α -methylhistamine (80 Ci/mmol) and continued under incubation at 30° C. for 30 min. Bound ligand was separated from unbound ligand by filtration, and the amount of radioactive ligand bound to the membranes was quantitated by liquid scintillation spectrometry. All incubations were performed in duplicate and the standard error was always less than 10%. Compounds that inhibited more than 70% of the specific binding of radioactive ligand to the receptor were serially diluted to determine a Ki (μM).

T1 sequence (Q9JI35 whole entry): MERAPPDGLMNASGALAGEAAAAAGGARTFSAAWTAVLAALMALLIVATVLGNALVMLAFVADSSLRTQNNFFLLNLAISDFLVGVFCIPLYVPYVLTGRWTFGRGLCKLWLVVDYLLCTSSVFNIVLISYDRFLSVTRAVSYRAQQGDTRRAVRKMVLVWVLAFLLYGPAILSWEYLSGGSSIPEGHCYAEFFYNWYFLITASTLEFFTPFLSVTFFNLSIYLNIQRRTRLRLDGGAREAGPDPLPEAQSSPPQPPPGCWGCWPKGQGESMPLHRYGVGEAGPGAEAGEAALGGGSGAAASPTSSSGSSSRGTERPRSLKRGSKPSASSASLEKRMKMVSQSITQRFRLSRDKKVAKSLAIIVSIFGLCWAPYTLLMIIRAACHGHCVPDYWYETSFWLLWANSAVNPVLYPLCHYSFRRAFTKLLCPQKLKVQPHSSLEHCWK

Structure (SMILES) | Ki
N=C(NCc1ccc(Cl)cc1)c1ccc(Cc2c[nH]cn2)cc1 [Compound 6, N-[(4-Chlorophenyl)methyl]-4-[(1H-imidazol-4-yl)methyl]benzene methanimidamide] | 14 nM
COc1ccc(C/N=C(\N)c2ccc(Cc3c[nH]cn3)cc2)cc1 [Compound 6a, N-[(4-Methoxyphenyl)methyl]-4-[(1H-imidazol-4-yl)methyl]benzene methanimidamide] | 560 nM
NCc1ccc(Cc2c[nH]cn2)cc1 [Compound 21, 4-[(1H-Imidazol-4-yl)methyl]benzenemethanamine] | 78 nM
N=C(CCc1ccc(Cc2cnc[nH]2)cc1)NCc1ccc(Cl)cc1 [Compound 27, N-[(4-Chlorophenyl)methyl]-4-[(1H-imidazol-4-yl)methyl]benzene propanimidamide] | 180 nM
O=C(Nc1ccc(Cl)cc1)OCc1ccc(Cc2c[nH]cn2)cc1 [Compound 38, [4-(1H-Imidazol-4-ylmethyl)phenyl]methyl N-(4-chlorophenyl)carbamate] | 24 nM

Same assay, conditions: guinea pig brain membranes; 3 nM [^3 H]R-α-methylhistamine or 3 nM [^3 H]N^α -methylhistamine; 30° C., 30 min, pH 7.5; read-out: Ki

Structure (SMILES) | Ki
N=C(NCc1ccc(C(F)(F)F)cc1)c1ccc(Cc2c[nH]cn2)cc1 [Compound 6b, N-[(4-trifluoromethylphenyl)methyl]-4-[(1H-imidazol-4-yl)methyl]benzenemethanimidamide] | 140 nM
N=C(NCCc1ccccc1)c1ccc(Cc2c[nH]cn2)cc1 [Compound 6d, N-(2-Phenylethyl)-4-[(1H-imidazol-4-yl)methyl]benzene methanimidamide] | 450 nM
N=C(N)c1ccc(Cc2c[nH]cn2)cc1 [Compound 9, 4-[(1H-Imidazol-4-yl)methyl]benzene methanimidamide] | 38 nM
N=C(N)c1cccc(Cc2c[nH]cn2)c1 [Compound 10, 3-[(1H-Imidazol-4-yl)methyl]benzene methanimidamide] | 310 nM
N=C(N)c1cccc(CCc2c[nH]cn2)c1 [Compound 16, 3-[(1H-Imidazol-4-yl)ethyl]benzene methanimidamide] | 220 nM
N=C(N)c1ccc(CCc2cnc[nH]2)cc1 [Compound 17, 4-[(1H-Imidazol-4-yl)ethyl]benzene methanimidamide] | 170 nM
N=C(Cc1ccc(Cc2c[nH]cn2)cc1)NCc1ccc(Cl)cc1 [Compound 29, N-[(4-Chlorophenyl)methyl]-4-[(1H-imidazol-4-yl)methyl]benzene ethanimidamide] | 7.2 nM

Same assay, conditions: pH 7.5, read-out: Inhibition of binding of radioactive ligand, Inhibition (%) at 2 μg/ml

Structure (SMILES) | inhibition at 2 µg/mL
N=C(NCc1ccncc1)c1ccc(Cc2c[nH]cn2)cc1 [Compound 6c, N-[(4-Pyridyl)methyl]-4-[(1H-imidazol-4-yl)methyl]benzene methanimidamide] | 48%
O=C(NCc1ccc(Cl)cc1)c1ccc(Cc2c[nH]cn2)cc1 [Compound 33, N-[(4-Chlorophenyl)methyl]-4-(1H-imidazol-4-ylmethyl)benzamide] | 61%
Clc1ccc(COCc2ccc(Cc3c[nH]cn3)cc2)cc1 [Compound 36, 4-[[4-[[(4-Chlorophenyl)methoxy]methyl]phenyl]methyl]-1H-imidazole] | 6 to 87%
O=C(OCc1ccc(Cc2c[nH]cn2)cc1)c1ccc(Cl)cc1 [Compound 40, [4-(1H-Imidazol-4-ylmethyl)phenyl]methyl 4-chlorobenzoate] | 10%
O=C(OCc1ccc(Cl)cc1)c1ccc(Cc2c[nH]cn2)cc1 [Compound 43, (4-Chlorophenyl)methyl 4-(1H-imidazol-4-ylmethyl)benzoate] | 16 to 78%

System: H3 receptors
Assay: not given
Settings: rat; cited from earlier work

Structure (SMILES) | short-term memory and reversal learning
S=C(NC1CCCCC1)N1CCC(c2cnc[nH]2)CC1 [thioperamide] | can improve short-term memory and reversal learning

System: histamine H3 receptor
Assay: not given
Settings: mice, electrically induced convulsions; cited from earlier work

Structure (SMILES) | duration of each phase of convulsion
S=C(NC1CCCCC1)N1CCC(c2cnc[nH]2)CC1 [thioperamide] | decreased the duration of each phase of convulsion

Same assay, conditions: mice; cited from earlier work

Structure (SMILES) | electroconvulsive threshold
S=C(NC1CCCCC1)N1CCC(c2cnc[nH]2)CC1 [thioperamide] | raised the electroconvulsive threshold
